pEC50: −log10 of the molar value.

For experiment [1], the target named is T1, human RORgt nuclear receptor (RORgT ligand binding domain protein) (Homo sapiens, UniProt P51449).
T1 construct: purchased Proteros Biostructures GmbH
T1 sequence (P51449 with tags, fused parts or gaps): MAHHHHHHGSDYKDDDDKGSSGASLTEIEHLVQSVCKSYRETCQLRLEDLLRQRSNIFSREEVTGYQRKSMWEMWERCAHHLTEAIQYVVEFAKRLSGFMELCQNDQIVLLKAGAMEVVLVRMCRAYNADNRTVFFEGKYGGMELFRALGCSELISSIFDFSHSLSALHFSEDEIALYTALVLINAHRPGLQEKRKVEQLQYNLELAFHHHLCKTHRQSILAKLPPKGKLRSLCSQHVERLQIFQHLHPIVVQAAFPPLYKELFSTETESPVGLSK
Kind of experiment: ROR-gamma binding assay (Scintillation Proximity Assay, displacement of [3H]-25-hydroxycholesterol). To be noted: EC50, SPA, 15 nM [3H]-25-Hydroxycholesterol, RORgT LBD 12 nM. As to the method: This assay is used to evaluate the binding affinity of compounds to the ligand-binding pocket of the human RORgt nuclear receptor based on displacement of a radio-ligand. The EC50 values are calculated using a four parameter fit. Compounds binding with high affinity to RORgt will have low EC50 values.
The assay is a Scintillation Proximity Assay (SPA) that involves competition between an unlabeled test compound and tritium-labeled 25-hydroxycholesterol for binding to RORgT ligand binding domain (LBD) protein immobilized on the surface of SPA beads. These beads contain a scintillant that emits light if excited by a radioactive particle, and this light is detected using a scintillation counter. In this assay, tritium-labelled 25-hydroxycholesterol is used as radiotracer.
400 nL of titrated test and reference compounds in DMSO were transferred by the Echo liquid handling system to a 384-well assay plate followed by addition of 5 μL [3H]-25-Hydroxycholesterol (Perkin Elmer) and 35 μL diluted RORgT LBD protein with the following amino acid sequence (HIS-FLG-tag): MAHHHHHHGSDYKDDDDKGSSGASLTEIEHLVQSVCKSYRETCQLRLEDLLRQRSNIFSREEVTGYQRKSMWEMWERCAHHLTEAIQYVVEFAKRLSGFMELCQNDQIVLLKAGAMEVVLVRMCRAYNADNRTVFFEGKYGGMELFRALGCSELISSIFDFSHSLSALHFSEDEIALYTALVLINAHRPGLQEKRKVEQLQYNLELAFHHHLCKTHRQSILAKLPPKGKLRSLCSQHVERLQIFQHLHPIVVQAAFPPLYKELFSTETESPVGLSK (SEQ ID NO: 1) (Purchased from Proteros Biostructures GmbH). After 30 min of preincubation, 40 μL of HIS-TAG PVT SPA beads (Perkin Elmer) were added. The plates were then incubated for minimum 4 hours at room temperature in darkness before measuring the SPA signal using a MicroBeta plate scintillation counter. Final assay conditions were: 50 mM HEPES pH 7.4, 150 mM NaCl, 5 mM MgCl2, 0.1% BSA, 4 μg/well HIS-TAG PVT SPA Beads, 30 ng/well RORgT LBD (equal to a final concentration of 12 nM), 15 nM [^3H]-25-Hydroxycholesterol, 0.5% DMSO and varying concentrations of test compound in a total volume of 80 μL/well. EC50 values were calculated using a 4-parameter non-linear regression curve-fitting model.

For experiment [2], the system named is IL-17A in Human peripheral mononuclear cells. Kind of experiment: Human PBMC IL-17A assay. To be noted: 72 h, EC50, antiCD3/antiCD28-coated beads, 3 days, alpha-LISA. In kind it is cell-based. As to the method: This assay measures the IL-17A inhibitory potential of test compounds in Human peripheral mononuclear cells.
Peripheral blood mononuclear cells (PBMC) were isolated from human buffy coats using density grade centrifugation (Lymphoprep, Medinor), washed twice in PBS and frozen at −150° C. for later use.
Test compounds were diluted in DMSO and 70 nL of titrated test and reference compounds were transferred by the Echo liquid handling system to a 384-well assay plate in to give a final concentration of 0.1% DMSO in the wells.
The PBMC were thawed, washed and suspended in RPMI-1640 supplemented with pen/strep, glutamax and 10% bovine calf serum. The cells were mixed with antiCD3/antiCD28-coated beads (1 cells pr one bead) (Milteney T-cell expansion kit), and immediately thereafter the cells were pipetted to the plate at 130,000c/well. The plate was incubated for 3 days in humidified air/CO2 (95%/5%) On day 3 the level of IL-17A in the culture supernatant is measured using alpha-LISA kit (Perkin Elmer). Cell viability was measured by adding 6 uL pr well Prestoblue© (Life Technologies) and incubating for 2 hours followed by fluorescent measurement (Ex535/Em615). EC50 values were calculated using a 4-parameter non-linear regression curve-fitting model. Donors may be pre-screened in order to select PBMC with a high secretion of IL-17A.

For experiment [3], the system named is IL-17A levels in human peripheral blood. Kind of experiment: tissue or blood. The following applies: 72 h, read-out: Human Whole blood IL-17A (nM). In kind it is cell-based.

As to `Cc1c(CN2CCN(C(=O)c3ccccc3)[C@@H](C)C2)cc(Cl)cc1Nc1nnc(C#N)o1` [Example 1, 5-[3-[[(3S)-4-benzoyl-3-methyl-piperazin-1-yl]methyl]-5-chloro-2-methyl-anilino]-1,3,4-oxadiazole-2-carbonitrile], the pEC50 is 7.40 in experiment [1] and 5.52 in experiment [2].
As for `COCc1nnc(Nc2cc(Cl)cc(CN3CCN(C(=O)c4ccccc4)[C@@H](C)C3)c2C)o1` [Example 2, [(2S)-4-[[5-chloro-3-[[5-(methoxymethyl)-1,3,4-oxadiazol-2-yl]amino]-2-methyl-phenyl]methyl]-2-methyl-piperazin-1-yl]-phenyl-methanone], the pEC50 is 7.54 in experiment [1] and 6.86 in experiment [2]. Besides, the EC50 in experiment [3] turned out to be 454 nM.
Turning to `Cc1c(CN2CCN(C(=O)c3ccccc3)[C@@H](C)C2)cc(Cl)cc1Nc1nnc(C2CCOC2)o1` (stereo partly drawn) [Example 3, [(2S)-4-[[5-chloro-2-methyl-3-[(5-tetrahydrofuran-3-yl-1,3,4-oxadiazol-2-yl)amino]phenyl]methyl]-2-methyl-piperazin-1-yl]-phenyl-methanone], the pEC50 was 7.65 in experiment [1] and 7.29 in experiment [2]. The EC50 in experiment [3] was found to be 204 nM.
`Cc1c(CN2CCN(C(=O)c3ccccc3)[C@@H](C)C2)cc(Cl)cc1Nc1nnc(C2CCCO2)o1` (stereo partly drawn) [Example 4, [(2S)-4-[[5-chloro-2-methyl-3-[(5-tetrahydrofuran-2-yl-1,3,4-oxadiazol-2-yl)amino]phenyl]methyl]-2-methyl-piperazin-1-yl]-phenyl-methanone]: the pEC50 is 7.52 in experiment [1] and 7.46 in experiment [2]. Besides, the EC50 in experiment [3] was 428 nM.
Turning to `Cc1c(CN2CCN(C(=O)c3ccccc3)[C@@H](C)C2)cc(Cl)cc1Nc1nnc(C2CC2)o1` [Example 5, [(2S)-4-[[5-chloro-3-[(5-cyclopropyl-1,3,4-oxadiazol-2-yl)amino]-2-methyl-phenyl]methyl]-2-methyl-piperazin-1-yl]-phenyl-methanone], the pEC50 in experiment [1] was 7.65; in experiment [2], 7.16. The EC50 in experiment [3] was determined as 385 nM.
With `Cc1c(CN2CCN(C(=O)c3ccccc3)[C@@H](C)C2)cc(Cl)cc1Nc1nnc(C2(O)CC2)o1` [Example 6, [(2S)-4-[[5-chloro-3-[[5-(1-hydroxycyclopropyl)-1,3,4-oxadiazol-2-yl]amino]-2-methyl-phenyl]methyl]-2-methyl-piperazin-1-yl]-phenyl-methanone], the pEC50 in experiment [1] is 7.50; in experiment [2], 6.63. The EC50 in experiment [3] amounted to 504 nM.
For the compound `Cc1c(CN2CCN(C(=O)c3ccccc3)[C@@H](C)C2)cc(Cl)cc1Nc1nnc(CCC#N)o1` [Example 7, 3-[5-[3-[[(3S)-4-benzoyl-3-methyl-piperazin-1-yl]methyl]-5-chloro-2-methyl-anilino]-1,3,4-oxadiazol-2-yl]propanenitrile], the pEC50 is 7.48 in experiment [1] and 7.30 in experiment [2]. The EC50 in experiment [3] was 219 nM.
Consider `CCC(F)(F)C(=O)N1CCN(Cc2cc(Cl)cc(Nc3nnc(COC)o3)c2C)C[C@@H]1C` [Example 8, 1-[(2S)-4-[[5-chloro-3-[[5-(methoxymethyl)-1,3,4-oxadiazol-2-yl]amino]-2-methyl-phenyl]methyl]-2-methyl-piperazin-1-yl]-2,2-difluoro-butan-1-one], for which the pEC50 is 7.16 in experiment [1] and 6.60 in experiment [2]. Further, the EC50 in experiment [3] is 497 nM.
Turning to `COCc1nnc(Nc2cc(Cl)cc(CN3CCN(C(=O)c4ccccc4F)[C@@H](C)C3)c2C)o1` [Example 9, [(2S)-4-[[5-chloro-3-[[5-(methoxymethyl)-1,3,4-oxadiazol-2-yl]amino]-2-methyl-phenyl]methyl]-2-methyl-piperazin-1-yl]-(2-fluorophenyl)methanone], the figures for the pEC50 in experiment [1] and in experiment [2] were 7.63 and 7.00, respectively. Moreover, the EC50 in experiment [3] amounted to 254 nM.
For `COCc1nnc(Nc2cc(Cl)cc(CN3CCN(C(=O)C4CCC(F)(F)C4)[C@@H](C)C3)c2C)o1` (stereo partly drawn) [Example 10, [(2S)-4-[[5-chloro-3-[[5-(methoxymethyl)-1,3,4-oxadiazol-2-yl]amino]-2-methyl-phenyl]methyl]-2-methyl-piperazin-1-yl]-(3,3-difluorocyclopentyl)methanone], in that order: 7.34, 6.76 and 296 nM.
With `CC[C@H](C)C(=O)N1CCN(Cc2cc(Cl)cc(Nc3nnc(COC)o3)c2C)C[C@@H]1C` [Example 11, (2S)-1-[(2S)-4-[[5-chloro-3-[[5-(methoxymethyl)-1,3,4-oxadiazol-2-yl]amino]-2-methyl-phenyl]methyl]-2-methyl-piperazin-1-yl]-2-methyl-butan-1-one], the values for the negative logarithm of the EC50 (pEC50) in experiment [1] and in experiment [2] were 7.55 and 7.03, respectively. In experiment [3], the EC50 was 132 nM.
With `Cc1cc(CN2CCN(C(=O)OC(C)(C)C)[C@@H](C)C2)c(C)c(Nc2nnc([C@H](C)O)o2)c1` [Example 28, tert-butyl (2S)-4-[[3-[[5-[(1S)-1-hydroxyethyl]-1,3,4-oxadiazol-2-yl]amino]-2,5-dimethyl-phenyl]methyl]-2-methyl-piperazine-1-carboxylate], the pEC50 in experiment [1] is 7.45; in experiment [2] it was 6.97.
With `Cc1c(CN2CCN(C(=O)OCC(F)(F)F)[C@@H](C)C2)cc(Cl)cc1Nc1nnc(CC#N)o1` [Example 69, 2,2,2-trifluoroethyl (2S)-4-[[5-chloro-3-[[5-(cyanomethyl)-1,3,4-oxadiazol-2-yl]amino]-2-methyl-phenyl]methyl]-2-methyl-piperazine-1-carboxylate], the pEC50 in experiment [1] was 7.15; in experiment [2], 6.51.
For `Cc1cc(CN2CCN(C(=O)O[C@H](C)C(F)(F)F)[C@@H](C)C2)c(C)c(Nc2nnc([C@H]3NCC[C@H]3O)o2)c1` [Example 80, [(1R)-2,2,2-trifluoro-1-methyl-ethyl] (2S)-4-[[3-[[5-[(2S,3R)-3-hydroxypyrrolidin-2-yl]-1,3,4-oxadiazol-2-yl]amino]-2,5-dimethyl-phenyl]methyl]-2-methyl-piperazine-1-carboxylate], in that order: 7.65 and 7.15.
For `Cc1cc(CN2CCN(C(=O)OCC(F)(F)F)[C@@H](C)C2)c(C)c(Nc2nnc([C@H]3NCC[C@H]3O)o2)c1` [Example 81, 2,2,2-trifluoroethyl (2S)-4-[[3-[[5-[(2S,3R)-3-hydroxypyrrolidin-2-yl]-1,3,4-oxadiazol-2-yl]amino]-2,5-dimethyl-phenyl]methyl]-2-methyl-piperazine-1-carboxylate], in that order: 6.96 and 5.82.
For `CC[C@@H](C)OC(=O)N1CCN(Cc2cc(C)cc(Nc3nnc([C@H]4NCC[C@H]4O)o3)c2C)C[C@@H]1C` [Example 82, [(1R)-1-methylpropyl] (2S)-4-[[3-[[5-[(2S,3R)-3-hydroxypyrrolidin-2-yl]-1,3,4-oxadiazol-2-yl]amino]-2,5-dimethyl-phenyl]methyl]-2-methyl-piperazine-1-carboxylate], the figures for the pEC50 in experiment [1] and in experiment [2] were 7.49 and 7.34, respectively.

The values are drawn from patent publication US10934282B2, “Heteroaromatic modulators of the retinoid-related orphan receptor gamma” (LEO PHARMA A/S, priority 2016, dated 2021).
